Tests used:
Assay type in all cases: biochemical
LATS2 = molecular target: T1, LATS2 (Homo sapiens, UniProt Q9NRM7); test: RBC HotSpot kinase assay (33P-ATP, P81 filter-binding), LATS2; details: Table 28, biochemical kinase assay; read-out: LATS2 IC50
T1 sequence (Q9NRM7 1-1088): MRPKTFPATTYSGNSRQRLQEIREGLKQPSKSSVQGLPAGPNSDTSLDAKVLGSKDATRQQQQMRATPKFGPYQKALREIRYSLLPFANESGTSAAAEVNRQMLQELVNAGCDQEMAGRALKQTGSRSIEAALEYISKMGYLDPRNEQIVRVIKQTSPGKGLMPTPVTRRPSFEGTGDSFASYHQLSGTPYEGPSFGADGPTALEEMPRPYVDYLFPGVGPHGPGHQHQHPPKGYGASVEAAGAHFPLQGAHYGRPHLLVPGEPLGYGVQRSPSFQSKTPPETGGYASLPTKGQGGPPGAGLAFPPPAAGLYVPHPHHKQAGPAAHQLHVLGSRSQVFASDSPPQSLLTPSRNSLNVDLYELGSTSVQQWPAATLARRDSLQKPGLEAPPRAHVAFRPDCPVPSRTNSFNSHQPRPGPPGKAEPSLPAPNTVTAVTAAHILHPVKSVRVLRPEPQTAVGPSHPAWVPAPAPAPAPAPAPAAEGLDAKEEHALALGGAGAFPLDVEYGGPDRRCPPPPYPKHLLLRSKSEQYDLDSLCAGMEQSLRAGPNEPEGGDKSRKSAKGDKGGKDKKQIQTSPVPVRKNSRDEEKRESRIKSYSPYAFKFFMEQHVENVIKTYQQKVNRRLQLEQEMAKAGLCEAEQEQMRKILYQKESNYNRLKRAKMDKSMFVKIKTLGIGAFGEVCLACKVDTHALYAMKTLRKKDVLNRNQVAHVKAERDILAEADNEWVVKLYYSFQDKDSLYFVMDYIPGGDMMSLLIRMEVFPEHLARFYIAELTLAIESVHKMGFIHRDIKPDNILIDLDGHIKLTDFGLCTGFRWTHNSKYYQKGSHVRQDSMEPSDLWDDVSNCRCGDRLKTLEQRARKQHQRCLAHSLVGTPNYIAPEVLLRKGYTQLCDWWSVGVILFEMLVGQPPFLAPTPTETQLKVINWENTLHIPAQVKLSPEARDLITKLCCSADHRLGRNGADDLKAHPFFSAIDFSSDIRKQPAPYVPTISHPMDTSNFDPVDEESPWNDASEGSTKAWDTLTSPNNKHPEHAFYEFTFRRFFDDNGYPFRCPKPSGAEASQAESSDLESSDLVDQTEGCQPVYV
Summary of the method: (§1)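 Kinase in Hepes pH 7.5 buffer with Mg2+, EGTA, Brij35, BSA, vanadate, DTT and 1% DMSO, plus required cofactors and substrate, was preincubated 20 min at room temperature with compound. Reaction was started with 33P-ATP and run 2 h, then detected by P81 filter binding. IC50 (nM) came from 10-point singlet curves.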

AKT = AKT (Homo sapiens, UniProt P31749); test: RBC HotSpot kinase assay (33P-ATP, P81 filter-binding), AKT; details: Table 28, biochemical kinase assay; read-out: AKT IC50
Summary of the method: as §1

LATS1 = molecular target: T2, LATS1 (Homo sapiens, UniProt O95835); test: RBC HotSpot kinase assay (33P-ATP, P81 filter-binding), LATS1; details: Table 28, biochemical kinase assay; read-out: LATS1 IC50
T2 sequence (O95835 1-1130): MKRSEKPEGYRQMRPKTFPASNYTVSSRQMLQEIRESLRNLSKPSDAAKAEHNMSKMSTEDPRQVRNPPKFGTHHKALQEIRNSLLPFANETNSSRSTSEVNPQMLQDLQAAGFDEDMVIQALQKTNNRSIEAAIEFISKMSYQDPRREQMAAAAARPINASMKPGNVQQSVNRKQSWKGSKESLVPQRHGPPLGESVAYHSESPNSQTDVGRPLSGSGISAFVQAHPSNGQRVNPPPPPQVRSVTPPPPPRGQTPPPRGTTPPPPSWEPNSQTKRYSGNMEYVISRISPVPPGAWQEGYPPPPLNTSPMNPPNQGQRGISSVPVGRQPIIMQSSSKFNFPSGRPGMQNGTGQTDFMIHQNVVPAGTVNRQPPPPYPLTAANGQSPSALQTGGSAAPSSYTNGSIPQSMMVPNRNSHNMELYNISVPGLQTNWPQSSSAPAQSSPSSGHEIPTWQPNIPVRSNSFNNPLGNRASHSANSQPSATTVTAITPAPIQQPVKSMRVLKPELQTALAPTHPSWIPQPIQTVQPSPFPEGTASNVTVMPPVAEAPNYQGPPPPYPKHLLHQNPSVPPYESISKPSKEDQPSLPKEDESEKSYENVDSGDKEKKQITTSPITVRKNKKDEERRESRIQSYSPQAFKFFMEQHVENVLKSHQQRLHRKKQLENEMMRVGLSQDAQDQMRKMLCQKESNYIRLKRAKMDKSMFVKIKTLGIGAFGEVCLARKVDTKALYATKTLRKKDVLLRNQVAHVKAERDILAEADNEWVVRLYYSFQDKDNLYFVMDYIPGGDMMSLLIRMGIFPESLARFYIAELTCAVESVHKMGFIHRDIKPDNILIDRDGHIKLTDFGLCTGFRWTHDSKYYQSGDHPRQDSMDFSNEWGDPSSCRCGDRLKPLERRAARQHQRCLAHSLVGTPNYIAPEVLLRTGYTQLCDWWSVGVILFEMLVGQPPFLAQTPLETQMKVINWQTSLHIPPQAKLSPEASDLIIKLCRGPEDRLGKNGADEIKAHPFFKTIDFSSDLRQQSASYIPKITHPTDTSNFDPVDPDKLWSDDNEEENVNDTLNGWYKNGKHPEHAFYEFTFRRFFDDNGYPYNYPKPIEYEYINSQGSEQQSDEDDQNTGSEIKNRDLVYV
Summary of the method: as §1

AKT, sequence (P31749 whole entry): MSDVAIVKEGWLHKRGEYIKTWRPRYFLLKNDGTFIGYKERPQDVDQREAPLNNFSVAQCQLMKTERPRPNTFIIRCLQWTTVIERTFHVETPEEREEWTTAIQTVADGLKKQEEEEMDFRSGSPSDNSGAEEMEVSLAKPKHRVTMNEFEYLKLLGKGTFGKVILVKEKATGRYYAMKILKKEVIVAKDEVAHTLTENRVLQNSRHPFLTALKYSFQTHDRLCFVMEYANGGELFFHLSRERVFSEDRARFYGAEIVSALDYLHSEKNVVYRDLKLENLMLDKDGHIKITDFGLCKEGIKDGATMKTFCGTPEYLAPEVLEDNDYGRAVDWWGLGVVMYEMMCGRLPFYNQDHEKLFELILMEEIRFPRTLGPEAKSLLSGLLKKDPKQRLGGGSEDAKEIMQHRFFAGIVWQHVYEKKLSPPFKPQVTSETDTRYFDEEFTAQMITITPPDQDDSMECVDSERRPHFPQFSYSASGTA

Row | SMILES | IC50 (LATS2) | IC50 (AKT) | IC50 (LATS1)
1 | c1cncc(-c2cc(-c3ccnc4[nH]ccc34)ccc2C2CCNCC2)c1 [Compound 154, 4-(4-(piperidin-4-yl)-3-(pyridin-3-yl)phenyl)-1H-pyrrolo[2,3-b]pyridine] | 0.048 µM | 1.32 µM | 0.087 µM
2 | NCc1ccc(-c2cc(-c3ccnc4[nH]ccc34)ccc2C2CCNCC2)cc1 [Compound 155, (2′-(piperidin-4-yl)-5′-(1H-pyrrolo[2,3-b]pyridin-4-yl)-[1,1′-biphenyl]-4-yl)methanamine] | 0.001 µM | 0.068 µM | 0.0043 µM
3 | CC(C)(C)Nc1cc(-c2ccnc3[nH]cc(F)c23)ccc1C1CCNCC1 [Compound 156, N-(tert-butyl)-5-(3-fluoro-1H-pyrrolo[2,3-b]pyridin-4-yl)-2-(piperidin-4-yl)aniline] | 0.121 µM | 1.12 µM | 0.139 µM
4 | CC(C)(C)Nc1cc(-c2ccnc3[nH]ccc23)ccc1C1CCNCC1 [Compound 157, N-(tert-butyl)-2-(piperidin-4-yl)-5-(1H-pyrrolo[2,3-b]pyridin-4-yl)aniline] | 0.109 µM | 1.65 µM | 0.216 µM
5 | Clc1cc(-c2ccnc3[nH]ccc23)ccc1C1CCNCC1 [Compound 161, 4-(3-chloro-4-(piperidin-4-yl)phenyl)-1H-pyrrolo[2,3-b]pyridine] | 0.021 µM | 0.753 µM | 0.0089 µM
6 | N#Cc1cc(C2CCNCC2)ccc1-c1ccnc2[nH]ccc12 [Compound 174, 5-(piperidin-4-yl)-2-(1H-pyrrolo[2,3-b]pyridin-4-yl)benzonitrile] | 2.41 µM | 9 µM | 4.93 µM
7 | c1cc(-c2ccc(C3CCNCC3)cn2)c2cc[nH]c2n1 [Compound 175, 4-(5-(piperidin-4-yl)pyridin-2-yl)-1H-pyrrolo[2,3-b]pyridine] | 0.142 µM | 7 µM | 0.056 µM
8 | Cc1cc(C2CCNCC2)ccc1-c1ccnc2[nH]ccc12 [Compound 176, 4-(2-methyl-4-(piperidin-4-yl)phenyl)-1H-pyrrolo[2,3-b]pyridine] | 2.14 µM | > 10 µM | 1.1 µM
9 | c1cc(-c2ccc(C3CCNCC3)nc2)c2cc[nH]c2n1 [Compound 178, 4-(6-(piperidin-4-yl)pyridin-3-yl)-1H-pyrrolo[2,3-b]pyridine] | 0.071 µM | 0.64 µM | 0.063 µM
10 | COc1cc(C2CCNCC2)ccc1-c1ccnc2[nH]ccc12 [Compound 179, 4-(2-methoxy-4-(piperidin-4-yl)phenyl)-1H-pyrrolo[2,3-b]pyridine] | 1.29 µM | 5.66 µM | 1.08 µM

Results, then the compound that gave them:

Row | IC50 (LATS2) | IC50 (AKT) | IC50 (LATS1) | SMILES
11 | 0.056 µM | 1.15 µM | 0.029 µM | COCCN1CCC(c2ccc(-c3ccnc4[nH]cc(F)c34)cc2Cl)CC1 [Compound 158, 4-(3-chloro-4-(1-(2-methoxyethyl)piperidin-4-yl)phenyl)-3-fluoro-1H-pyrrolo[2,3-b]pyridine]
12 | 0.139 µM | 8.52 µM | 0.174 µM | CN(C)CCS(=O)(=O)N1CCC(c2ccc(-c3ccnc4[nH]cc(F)c34)cc2Cl)CC1 [Compound 159, 2-((4-(2-chloro-4-(3-fluoro-1H-pyrrolo[2,3-b]pyridin-4-yl)phenyl)piperidin-1-yl)sulfonyl)-N,N-dimethylethan-1-amine]
13 | 0.442 µM | > 10 µM | 0.451 µM | O=C(C1CC1)N1CCC(c2ccc(-c3ccnc4[nH]cc(F)c34)cc2Cl)CC1 [Compound 160, (4-(2-chloro-4-(3-fluoro-1H-pyrrolo[2,3-b]pyridin-4-yl)phenyl)piperidin-1-yl)(cyclopropyl)methanone]
14 | > 10 µM | > 10 µM | > 10 µM | C[Si](C)(C)CCS(=O)(=O)N1CCC(c2ccc(-c3ccnc4[nH]cc(F)c34)cc2Cl)CC1 [Compound 162, 4-(3-chloro-4-(1-((2-(trimethylsilyl)ethyl)sulfonyl)piperidin-4-yl)phenyl)-3-fluoro-1H-pyrrolo[2,3-b]pyridine]
15 | > 10 µM | > 10 µM | > 10 µM | O=S(=O)(CCC1CC1)N1CCC(c2ccc(-c3ccnc4[nH]cc(F)c34)cc2Cl)CC1 [Compound 163, 4-(3-chloro-4-(1-((2-cyclopropylethyl)sulfonyl)piperidin-4-yl)phenyl)-3-fluoro-1H-pyrrolo[2,3-b]pyridine]
16 | > 10 µM | > 10 µM | > 10 µM | CCOCCS(=O)(=O)N1CCC(c2ccc(-c3ccnc4[nH]cc(F)c34)cc2Cl)CC1 [Compound 164, 4-(3-chloro-4-(1-((2-ethoxyethyl)sulfonyl)piperidin-4-yl)phenyl)-3-fluoro-1H-pyrrolo[2,3-b]pyridine]
17 | 0.0369 µM | 1.51 µM | 0.0321 µM | O=C([C@H]1CCCN1)N1CCC(c2ccc(-c3ccnc4[nH]cc(F)c34)cc2Cl)CC1 [Compound 165, (R)-4-(3-chloro-4-(1-prolylpiperidin-4-yl)phenyl)-3-fluoro-1H-pyrrolo[2,3-b]pyridine]
18 | 0.0155 µM | 1.3 µM | 0.0107 µM | O=C([C@@H]1CCCN1)N1CCC(c2ccc(-c3ccnc4[nH]cc(F)c34)cc2Cl)CC1 [Compound 166, (S)-4-(3-chloro-4-(1-prolylpiperidin-4-yl)phenyl)-3-fluoro-1H-pyrrolo[2,3-b]pyridine]
19 | 0.031 µM | 1.52 µM | 0.018 µM | CN1CCC(c2ccc(-c3ccnc4[nH]cc(F)c34)cc2Cl)CC1 [Compound 167, 4-(3-chloro-4-(1-methylpiperidin-4-yl)phenyl)-3-fluoro-1H-pyrrolo[2,3-b]pyridine]
20 | > 10 µM | > 10 µM | > 10 µM | CC(C)(C)OC(=O)N1CCC(c2ccc(-c3ccnc4[nH]cc(F)c34)cc2Cl)CC1 [Compound 170, tert-butyl 4-(2-chloro-4-(3-fluoro-1H-pyrrolo[2,3-b]pyridin-4-yl)phenyl)piperidine-1-carboxylate]
21 | 0.1 µM | 5.4 µM | 0.069 µM | CC(=O)N1CCC(c2ccc(-c3ccnc4[nH]cc(F)c34)cc2Cl)CC1 [Compound 171, 1-(4-(2-chloro-4-(3-fluoro-1H-pyrrolo[2,3-b]pyridin-4-yl)phenyl)piperidin-1-yl)ethan-1-one]

From patent US20250361230A1, “LATS Inhibitors and Uses Thereof” (The USA, as Represented by the Secretary, Dept. of Heath …, priority 2022, published 2025)
